Laboratory results published in patent publication US20140135270A1, “MACROCYCLIC COMPOUNDS FOR INHIBITION OF INHIBITORS OF APOPTOSIS” (Ensemble Therapeutics Corp., priority 2012, published 2014).

Assays:
His-BIR3 (241-356, XIAP) = target: T1, His-BIR3 (241-356, XIAP) (Homo sapiens, UniProt P98170); assay: XIAP-BIR3/SMAC Homogeneous Time Resolved Fluorescence (HTRF) Assay; format: binding; conditions: fluorescein labeled SMAC peptide
T1 construct: additions of His-BIR3 (241-356, XIAP), fluorescein labeled SMAC peptide

[1] = target: T2, His-BIR2-3 (125-356, C202A/C213G, XIAP) (Homo sapiens, UniProt P98170, C202A/C213G); assay: XIAP-BIR2-3 Dimeric SMAC Peptide Homogeneous Time Resolved Fluorescence (HTRF) Assay; format: binding; conditions: fluorescein labeled dimeric SMAC peptide
T2 construct: additions of His-BIR2-3 (125-356, C202A/C213G, XIAP), fluorescein labeled dimeric SMAC peptide
T2 sequence (P98170 125-356 C202A/C213G): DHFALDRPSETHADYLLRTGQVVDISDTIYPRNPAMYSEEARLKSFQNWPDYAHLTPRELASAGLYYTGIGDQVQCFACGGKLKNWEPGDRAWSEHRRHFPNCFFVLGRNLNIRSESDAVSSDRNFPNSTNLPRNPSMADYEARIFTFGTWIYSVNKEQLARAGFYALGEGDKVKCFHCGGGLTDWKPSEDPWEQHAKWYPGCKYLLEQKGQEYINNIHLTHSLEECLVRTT

T1 sequence (P98170 241-356): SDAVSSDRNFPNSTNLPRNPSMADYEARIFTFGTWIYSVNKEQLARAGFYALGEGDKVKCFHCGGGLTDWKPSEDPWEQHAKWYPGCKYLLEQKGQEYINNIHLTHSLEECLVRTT

IC50 (His-BIR3 (241-356, XIAP)) | IC50 [1] | Compound
5.4 nM | 12.4 nM | CN[C@@H](C)C(=O)N[C@H](C(=O)N1CCC2[C@H]1C(=O)N[C@@H](Cc1ccc3ccccc3c1)C(=O)N[C@H](C(=O)O)Cc1ccc(cc1)OC/C=C/CO[C@H]1C[C@@H](C(=O)N[C@@H](Cc3ccc4ccccc4c3)C(=O)N[C@H](C(=O)O)Cc3ccc(cc3)OCc3cn2nn3)N(C(=O)[C@@H](NC(=O)[C@H](C)NC)C(C)(C)C)C1)C(C)(C)C (stereo partly shown) [Example 13]
17 nM | 3.7 nM | CN[C@@H](C)C(=O)N[C@H](C(=O)N1CC[C@H]2OC/C=C/COc3ccc(cc3)C[C@@H](C(=O)O)NC(=O)[C@H](Cc3ccc4ccccc4c3)NC(=O)[C@@H]3[C@@H](CCN3C(=O)[C@@H](NC(=O)[C@H](C)NC)C(C)(C)C)OCc3cn(nn3)[C@H](C(=O)O)CCNC(=O)[C@H](Cc3ccc4ccccc4c3)NC(=O)[C@H]21)C(C)(C)C [Example 14]
6.2 nM | 3.5 nM | CN[C@@H](C)C(=O)N[C@H](C(=O)N1CC[C@H]2OCc3cn(nn3)CC[C@@H](C(=O)OC)NC(=O)[C@H](Cc3ccc4ccccc4c3)NC(=O)[C@@H]3[C@@H](CCN3C(=O)[C@@H](NC(=O)[C@H](C)NC)C(C)(C)C)OC/C=C/CC[C@@H](C(=O)O)NC(=O)[C@H](Cc3ccc4ccccc4c3)NC(=O)[C@H]21)C(C)(C)C [Example 16]
1.8 nM | 1.8 nM | CN[C@@H](C)C(=O)N[C@H](C(=O)N1CC[C@H]2OCc3cn(nn3)CC[C@@H](C(=O)OC)NC(=O)[C@H](Cc3ccc4ccccc4c3)NC(=O)[C@@H]3[C@@H](CCN3C(=O)[C@@H](NC(=O)[C@H](C)NC)C(C)(C)C)OC/C=C/COc3ccc(cc3)C[C@@H](C(=O)O)NC(=O)[C@H](Cc3ccc4ccccc4c3)NC(=O)[C@H]21)C(C)(C)C [Example 17]
4.8 nM | 7.3 nM | CN[C@@H](C)C(=O)N[C@H](C(=O)N[C@H]1C/C=C/CC[C@@H](C(=O)O)NC(=O)[C@H](Cc2ccc3ccccc3c2)NC(=O)[C@@H]2[C@@H](CCN2C(=O)[C@@H](NC(=O)[C@H](C)NC)C(C)(C)C)OCc2cn(nn2)CC[C@@H](C(=O)OC)NC(=O)[C@H](Cc2ccc3ccccc3c2)NC1=O)C(C)(C)C [Example 20]
0.7 nM | 0.2 nM | CN[C@@H](C)C(=O)N[C@H](C(=O)N1C[C@H]2C/C=C/COc3ccc(cc3)C[C@@H](C(=O)NS(=O)(=O)C3CCCCC3)NC(=O)[C@H](Cc3ccc4ccccc4c3)NC(=O)[C@@H]3C[C@@H](CN3C(=O)[C@@H](NC(=O)[C@H](C)NC)C(C)(C)C)n3cc(nn3)COc3ccc(cc3)C[C@@H](C(=O)O)NC(=O)[C@H](Cc3ccc4ccccc4c3)NC(=O)[C@@H]1C2)C(C)(C)C [Example 24]
0.9 nM | 0.2 nM | CN[C@@H](C)C(=O)N[C@H](C(=O)N1C[C@H]2C/C=C/COc3ccc(cc3)C[C@@H](C(=O)NS(=O)(=O)C3CC3)NC(=O)[C@H](Cc3ccc4ccccc4c3)NC(=O)[C@@H]3C[C@@H](CN3C(=O)[C@@H](NC(=O)[C@H](C)NC)C(C)(C)C)n3cc(nn3)COc3ccc(cc3)C[C@@H](C(=O)O)NC(=O)[C@H](Cc3ccc4ccccc4c3)NC(=O)[C@@H]1C2)C(C)(C)C [Example 25]
3.9 nM | 0.9 nM | CN[C@@H](C)C(=O)N[C@H](C(=O)N1C[C@H]2C/C=C/COc3ccc(cc3)C[C@@H](C(=O)NS(C)(=O)=O)NC(=O)[C@H](Cc3ccc4ccccc4c3)NC(=O)[C@@H]3C[C@@H](CN3C(=O)[C@@H](NC(=O)[C@H](C)NC)C(C)(C)C)n3cc(nn3)COc3ccc(cc3)C[C@@H](C(=O)O)NC(=O)[C@H](Cc3ccc4ccccc4c3)NC(=O)[C@@H]1C2)C(C)(C)C [Example 26]
77.8 nM | – | CC[C@H](NC(=O)[C@H](C)NC)C(=O)N1C[C@@H]2C[C@H]1C(=O)N[C@@H](c1ccccc1)C(=O)N[C@H](C(=O)O)Cc1ccc(cc1)C(=O)N[C@H]1C[C@@H](C(=O)N[C@@H](Cc3ccc4ccccc4c3)C(=O)N[C@H](C(=O)O)Cc3ccc(cc3)OC/C=C/CO2)N(C(=O)[C@@H](NC(=O)[C@H](C)NC)C(C)(C)C)C1 [Example 52]
60.3 nM | – | CC[C@H](NC(=O)[C@H](C)NC)C(=O)N1C[C@@H]2C[C@H]1C(=O)N[C@@H](c1ccccc1)C(=O)N[C@H](C(=O)O)Cc1ccc(cc1)C(=O)N[C@H]1C[C@@H](C(=O)N[C@@H](Cc3ccc4ccccc4c3)C(=O)N[C@H](C(=O)O)Cc3ccc(cc3)OC/C=C/CO2)N(C(=O)[C@@H](NC(=O)[C@H](C)NC)C(C)(C)C)C1 [Example 54]
7.1 nM | – | CN[C@@H](C)C(=O)N[C@H](C(=O)N1C[C@@H]2C[C@H]1C(=O)N[C@@H](Cc1ccc3ccccc3c1)C(=O)N[C@H](C(=O)O)Cc1ccc(cc1)C(=O)N[C@H]1C[C@@H](C(=O)N[C@@H](Cc3ccc4ccccc4c3)C(=O)N[C@H](C(=O)O)Cc3ccc(cc3)OC/C=C/CO2)N(C(=O)[C@@H](NC(=O)[C@H](C)NC)C(C)(C)C)C1)C1CCNCC1 [Example 74]

More lines, now with the values behind:

Compound | IC50 (His-BIR3 (241-356, XIAP)) | IC50 [1]
CN[C@@H](C)C(=O)N[C@H](C(=O)N1C[C@@H]2C[C@H]1C(=O)N[C@@H](Cc1ccc3ccccc3c1)C(=O)N[C@H](C(=O)O)Cc1ccc(cc1)OCCCC[C@H]1C[C@@H](C(=O)N[C@@H](Cc3ccc4ccccc4c3)C(=O)N[C@H](C(=O)NS(C)(=O)=O)Cc3ccc(cc3)OCc3cn2nn3)N(C(=O)[C@@H](NC(=O)[C@H](C)NC)C(C)(C)C)C1)C(C)(C)C [Example 2] | 2.3 nM | 0.8 nM
CNC(C)C(=O)NC(C(=O)N1CC2CC1C(=O)NC(Cc1ccc3ccccc3c1)C(=O)NC(C(=O)O)Cc1ccc(cc1)OCc1cn(nn1)C1CC(C(=O)NC(Cc3ccc4ccccc4c3)C(=O)NC(C(=O)O)Cc3ccc(cc3)OCC=CCO2)N(C(=O)C(NC(=O)C(C)NC)C(C)(C)C)C1)C(C)(C)C (stereo not shown) [Example 4] | 4.1 nM | 0.7 nM
CNC(C)C(=O)NC(C(=O)N1CC2CC1C(=O)NC(Cc1ccc3ccccc3c1)C(=O)NC(C(=O)O)Cc1ccc(cc1)OCCCCC1CC(C(=O)NC(Cc3ccc4ccccc4c3)C(=O)NC(C(=O)NS(=O)(=O)C(C)C)Cc3ccc(cc3)OCc3cn2nn3)N(C(=O)C(NC(=O)C(C)NC)C(C)(C)C)C1)C(C)(C)C (stereo not shown) [Example 10] | 6.6 nM | 3.1 nM
CN[C@@H](C)C(=O)N[C@H](C(=O)N1CC[C@@H]2OC/C=C/COc3ccc(cc3)C[C@@H](C(=O)O)NC(=O)[C@H](Cc3ccc4ccccc4c3)NC(=O)[C@@H]3[C@@H](CCN3C(=O)[C@@H](NC(=O)[C@H](C)NC)C(C)(C)C)OCc3cn(nn3)CCC[C@@H](C(=O)O)NC(=O)[C@H](Cc3ccc4ccccc4c3)NC(=O)[C@H]21)C(C)(C)C [Example 11] | 0.8 nM | 2.3 nM
CN[C@@H](C)C(=O)N[C@H](C(=O)N1CC[C@H]2OCc3cn(nn3)-c3ccc(cc3)C[C@@H](C(=O)O)NC(=O)[C@H](Cc3ccc4ccccc4c3)NC(=O)[C@@H]3C[C@@H](CN3C(=O)[C@@H](NC(=O)[C@H](C)NC)C(C)(C)C)OC/C=C/COc3ccc(cc3)C[C@@H](C(=O)O)NC(=O)[C@H](Cc3ccc4ccccc4c3)NC(=O)[C@H]21)C(C)(C)C [Example 12] | 1.2 nM | 1.2 nM
CN[C@@H](C)C(=O)N[C@H](C(=O)N1CC[C@H]2OC/C=C/CC[C@@H](C(=O)O)NC(=O)[C@H](Cc3ccc4ccccc4c3)NC(=O)[C@@H]3[C@@H](CCN3C(=O)[C@@H](NC(=O)[C@H](C)NC)C(C)(C)C)OCc3cn(nn3)[C@H](C(=O)O)CCNC(=O)[C@H](Cc3ccc4ccccc4c3)NC(=O)[C@H]21)C(C)(C)C [Example 15] | 38.9 nM | 4.1 nM
CN[C@@H](C)C(=O)N[C@H](C(=O)N1CC[C@@H]2OC/C=C/COc3ccc(cc3)C[C@@H](C(=O)O)NC(=O)[C@H](Cc3ccc4ccccc4c3)NC(=O)[C@@H]3[C@H](CCN3C(=O)[C@@H](NC(=O)[C@H](C)NC)C(C)(C)C)OCc3cn(nn3)[C@H](C(=O)NS(C)(=O)=O)CCCNC(=O)[C@H](Cc3ccc4ccccc4c3)NC(=O)[C@H]21)C(C)(C)C [Example 18] | 5.8 nM | 1.8 nM
CN[C@@H](C)C(=O)N[C@H](C(=O)N1CC[C@@H]2OC/C=C/CC[C@@H](C(=O)O)NC(=O)[C@H](Cc3ccc4ccccc4c3)NC(=O)[C@@H]3[C@H](CCN3C(=O)[C@@H](NC(=O)[C@H](C)NC)C(C)(C)C)OCc3cn(nn3)[C@H](C(=O)NS(C)(=O)=O)CCCNC(=O)[C@H](Cc3ccc4ccccc4c3)NC(=O)[C@H]21)C(C)(C)C [Example 19] | 35.3 nM | 16.8 nM
CN[C@@H](C)C(=O)N[C@H](C(=O)N[C@H]1C/C=C/COc2ccc(cc2)C[C@H](C(=O)O)NC(=O)[C@H](Cc2ccc3ccccc3c2)NC(=O)[C@@H]2[C@@H](CCN2C(=O)[C@@H](NC(=O)[C@H](C)NC)C(C)(C)C)OCc2cn(nn2)CC[C@@H](C(=O)OC)NC(=O)[C@H](Cc2ccc3ccccc3c2)NC1=O)C(C)(C)C [Example 21] | 1.8 nM | 2.6 nM
CCCCCCCCCCCCS(=O)(=O)NC(=O)[C@@H]1Cc2ccc(cc2)OC/C=C/C[C@H]2C[C@@H](C(=O)N[C@@H](Cc3ccc4ccccc4c3)C(=O)N[C@H](C(=O)O)Cc3ccc(cc3)OCc3cn(nn3)[C@H]3C[C@@H](C(=O)N[C@@H](Cc4ccc5ccccc5c4)C(=O)N1)N(C(=O)[C@@H](NC(=O)[C@H](C)NC)C(C)(C)C)C3)N(C(=O)[C@@H](NC(=O)[C@H](C)NC)C(C)(C)C)C2 [Example 23] | 34.2 nM | 6.9 nM
CN[C@@H](C)C(=O)N[C@H](C(=O)N1C[C@@H]2C[C@H]1C(=O)N[C@@H](Cc1ccc3ccccc3c1)C(=O)N[C@H](C(=O)O)Cc1ccc(cc1)C(=O)N[C@H]1C[C@@H](C(=O)N[C@@H](Cc3ccc4ccccc4c3)C(=O)N[C@H](C(=O)O)Cc3ccc(cc3)OC/C=C/CO2)N(C(=O)[C@@H](NC(=O)[C@H](C)NC)C(C)(C)C)C1)C1CCNCC1 [Example 67] | 20 nM | –
